Laboratory results from ChEMBL document CHEMBL1130531, “A new series of selective dopamine D4 ligands: 3-([4-arylpiperazin-1-yl]alkylamino)-2H-1,4-benzoxazines” (Bioorg Med Chem Lett, 1997).

Key:
Assay type in all cases: cell-based
[1] = biological target: T1, D(4) dopamine receptor (Homo sapiens, UniProt P21917); assay: Binding affinity at cloned human D4 dopamine receptor in CHO cells using [3H]-YM 09151 as radioligand
T1 sequence (P21917 whole entry): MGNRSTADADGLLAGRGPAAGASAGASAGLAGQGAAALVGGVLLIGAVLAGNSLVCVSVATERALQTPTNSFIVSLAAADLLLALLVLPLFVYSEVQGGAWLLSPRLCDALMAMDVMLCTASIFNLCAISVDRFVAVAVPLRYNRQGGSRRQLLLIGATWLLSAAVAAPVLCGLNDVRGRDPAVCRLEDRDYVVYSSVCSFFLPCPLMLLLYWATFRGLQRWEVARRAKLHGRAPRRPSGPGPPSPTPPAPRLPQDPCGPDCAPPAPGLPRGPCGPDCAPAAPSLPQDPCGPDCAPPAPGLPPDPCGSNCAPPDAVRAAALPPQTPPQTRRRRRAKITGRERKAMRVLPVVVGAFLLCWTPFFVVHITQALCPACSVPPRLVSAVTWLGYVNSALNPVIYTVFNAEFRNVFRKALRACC

[2] = biological target: D(2) dopamine receptor (Homo sapiens, UniProt P14416); assay: Binding affinity at cloned human D2 dopamine receptor in CHO cells using [3H]-YM 09151 as radioligand
[3] = biological target: D(3) dopamine receptor (Homo sapiens, UniProt P35462); assay: Binding affinity at cloned human D3 dopamine receptor in CHO cells using [3H]-YM 09151 as radioligand
D(3) dopamine receptor, sequence (P35462 whole entry): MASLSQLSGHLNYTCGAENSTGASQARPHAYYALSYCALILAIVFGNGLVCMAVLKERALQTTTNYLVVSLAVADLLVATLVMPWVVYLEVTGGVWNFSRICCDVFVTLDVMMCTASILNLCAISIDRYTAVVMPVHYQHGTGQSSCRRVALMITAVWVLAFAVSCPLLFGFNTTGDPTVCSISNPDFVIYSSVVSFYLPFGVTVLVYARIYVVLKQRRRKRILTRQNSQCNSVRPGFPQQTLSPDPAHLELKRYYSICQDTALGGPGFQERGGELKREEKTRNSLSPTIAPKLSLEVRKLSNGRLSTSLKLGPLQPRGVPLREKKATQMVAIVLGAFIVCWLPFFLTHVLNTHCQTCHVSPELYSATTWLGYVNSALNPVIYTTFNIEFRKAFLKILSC

D(2) dopamine receptor, sequence (P14416 whole entry): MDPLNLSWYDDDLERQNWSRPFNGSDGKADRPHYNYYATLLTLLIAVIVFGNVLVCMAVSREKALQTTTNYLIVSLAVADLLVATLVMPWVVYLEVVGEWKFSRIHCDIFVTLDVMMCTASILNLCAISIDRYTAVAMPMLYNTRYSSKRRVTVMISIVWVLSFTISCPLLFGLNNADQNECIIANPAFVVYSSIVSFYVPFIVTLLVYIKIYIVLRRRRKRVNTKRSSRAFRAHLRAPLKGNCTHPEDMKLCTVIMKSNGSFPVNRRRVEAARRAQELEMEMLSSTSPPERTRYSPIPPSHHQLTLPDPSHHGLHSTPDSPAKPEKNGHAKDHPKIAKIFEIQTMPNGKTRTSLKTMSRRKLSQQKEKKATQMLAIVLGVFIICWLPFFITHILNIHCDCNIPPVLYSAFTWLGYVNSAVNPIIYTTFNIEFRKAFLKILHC

| Ki [1] [nM] | Ki [2] [nM] | Ki [3] [nM] | SMILES |
| --- | --- | --- | --- |
| 125 |  |  | c1ccc2c(c1)N=C(NCCCCCN1CCN(c3ccc4ccccc4n3)CC1)CO2 |
| 3 | 280 | > 1000 | COc1ccccc1N1CCN(CCCNC2=Nc3ccccc3OC2)CC1 |
